The structures appear in SMILES notation.

For this test, the target named is Beta-1 adrenergic receptor (Homo sapiens, UniProt P08588). The test is described as follows: Binding affinity to beta1 adrenergic receptor (unknown origin).
Chain of Beta-1 adrenergic receptor (P08588 whole entry): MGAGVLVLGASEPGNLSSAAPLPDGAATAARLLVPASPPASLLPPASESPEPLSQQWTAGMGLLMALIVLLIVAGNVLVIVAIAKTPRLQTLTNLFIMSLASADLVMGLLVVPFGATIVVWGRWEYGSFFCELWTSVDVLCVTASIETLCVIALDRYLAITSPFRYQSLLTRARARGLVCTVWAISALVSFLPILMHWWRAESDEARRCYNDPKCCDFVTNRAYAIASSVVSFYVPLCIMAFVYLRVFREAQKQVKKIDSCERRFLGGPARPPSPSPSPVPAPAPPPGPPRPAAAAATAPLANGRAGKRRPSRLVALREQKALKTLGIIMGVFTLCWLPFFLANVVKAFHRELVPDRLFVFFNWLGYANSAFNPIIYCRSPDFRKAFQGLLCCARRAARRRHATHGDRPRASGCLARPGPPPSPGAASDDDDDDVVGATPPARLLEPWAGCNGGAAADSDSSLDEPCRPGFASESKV

Compound `Cc1cc(N2CCNCC2)nc2ccccc12` yielded a Ki of 220 nM.

By Ki is commonly meant the equilibrium dissociation constant of an inhibitor or competing ligand from its target. The low end stands for higher affinity, the high end for lower affinity.
